Patent US8415469B2, “Compounds and methods for kinase modulation, and indications therefor” (Plexxikon Inc., priority 2005, dated 2013)

Key:
Type in all cases: biochemical
[1] = biological target: T1, PKC theta (Homo sapiens, UniProt Q04759); test: Z'-Lyte FRET kinase assay (Invitrogen), PKC theta; settings: read-out: IC50, activity toward kinase PKC theta
T1 construct: purchased Invitrogen (Carlsbad, Calif.), screening service
Outline: (§1)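 10 μM ATP, 2 μM peptide, 1% DMSO final; HEPES pH 7.5 buffer with MgCl2/EGTA/BRIJ-35. Kinase rxn 1 h RT, protease development 1 h RT, stop, read donor/acceptor ratio. Compound titrated.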

[2] = biological target: T2, Ret (Homo sapiens, UniProt P07949); test: AlphaScreen kinase assay, Ret; settings: read-out: IC50, activity toward kinase Ret
T2 construct: P1378.pET-SF BI-PTP RET H661-R1012 HIS; made in house
T2 sequence (P07949 with tags, fused parts or gaps): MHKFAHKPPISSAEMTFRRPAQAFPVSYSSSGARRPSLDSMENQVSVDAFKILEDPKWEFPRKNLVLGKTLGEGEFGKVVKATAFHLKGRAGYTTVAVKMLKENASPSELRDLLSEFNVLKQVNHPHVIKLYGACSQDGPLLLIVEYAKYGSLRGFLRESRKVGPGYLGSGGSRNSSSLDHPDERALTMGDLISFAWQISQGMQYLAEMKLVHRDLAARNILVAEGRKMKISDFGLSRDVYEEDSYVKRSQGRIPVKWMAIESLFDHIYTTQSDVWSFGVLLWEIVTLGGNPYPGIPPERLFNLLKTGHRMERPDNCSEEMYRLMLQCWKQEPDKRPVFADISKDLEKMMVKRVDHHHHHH

[3] = biological target: T3, Stk6 (Homo sapiens, UniProt O14965); test: Z'-Lyte FRET kinase assay (Invitrogen), Stk6; settings: read-out: IC50, activity toward kinase Stk6
T3 construct: purchased Invitrogen (Carlsbad, Calif.), screening service
T3 sequence (O14965 1-403): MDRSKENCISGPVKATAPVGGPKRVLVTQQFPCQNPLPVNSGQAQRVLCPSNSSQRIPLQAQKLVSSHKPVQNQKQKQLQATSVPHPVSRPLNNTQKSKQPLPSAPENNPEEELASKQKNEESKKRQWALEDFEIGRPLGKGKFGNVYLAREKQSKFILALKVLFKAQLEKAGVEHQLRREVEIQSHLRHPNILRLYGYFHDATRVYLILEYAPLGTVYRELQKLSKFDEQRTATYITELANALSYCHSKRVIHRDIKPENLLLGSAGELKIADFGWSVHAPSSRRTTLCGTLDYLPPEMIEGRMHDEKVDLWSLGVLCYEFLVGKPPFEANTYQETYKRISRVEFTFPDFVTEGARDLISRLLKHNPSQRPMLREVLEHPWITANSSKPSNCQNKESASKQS

[4] = biological target: T4, Yes (Homo sapiens, UniProt P07947); test: Z'-Lyte FRET kinase assay (Invitrogen), Yes; settings: read-out: IC50, activity toward kinase Yes
T4 construct: purchased Invitrogen (Carlsbad, Calif.), screening service
Outline: as §1

[5] = biological target: T5, FGFR1 (Homo sapiens, UniProt P11362, C488A/C584S); test: AlphaScreen kinase assay, FGFR1; settings: read-out: IC50, activity toward kinase FGFR
T5 construct: P1351.pET N6 BI-PTP FGFR A458-E765-X C488A, C584S; made in house; host or cells: E. coli (PTP1B co-expressed)

[6] = biological target: T6, Fms (Homo sapiens, UniProt P07333); test: AlphaScreen kinase assay, Fms; settings: read-out: IC50, activity toward kinase Fms
T6 construct: purchased Upstate Biotechnology

[7] = biological target: T7, Fak (Homo sapiens, UniProt Q05397); test: AlphaScreen kinase assay, Fak; settings: read-out: IC50, activity toward kinase Fak
T7 construct: P1358.pFastBacHtb FAK S411-Q686-X; His6 with pFastBacHTb leader (TEV site) (N); made in house; host or cells: Sf9 (baculovirus)

[8] = biological target: T8, Jnk3 (Homo sapiens, UniProt P53779); test: AlphaScreen kinase assay, Jnk3; settings: read-out: IC50, activity toward kinase Jnk3
T8 construct: purchased Upstate Biotechnology
T8 sequence (P53779 whole entry): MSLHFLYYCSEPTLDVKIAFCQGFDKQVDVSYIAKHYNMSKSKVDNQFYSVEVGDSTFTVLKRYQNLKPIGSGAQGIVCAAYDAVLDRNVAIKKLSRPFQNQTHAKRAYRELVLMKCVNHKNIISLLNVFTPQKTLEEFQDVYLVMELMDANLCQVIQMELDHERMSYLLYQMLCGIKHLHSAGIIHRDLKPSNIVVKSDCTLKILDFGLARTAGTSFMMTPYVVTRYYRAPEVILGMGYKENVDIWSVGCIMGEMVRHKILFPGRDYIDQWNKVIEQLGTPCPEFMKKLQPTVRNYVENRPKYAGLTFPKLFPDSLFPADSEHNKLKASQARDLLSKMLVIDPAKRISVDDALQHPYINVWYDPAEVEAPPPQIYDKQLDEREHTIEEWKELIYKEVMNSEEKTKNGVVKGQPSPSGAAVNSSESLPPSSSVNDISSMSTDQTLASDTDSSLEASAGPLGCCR

T6 sequence (P07333 20-972): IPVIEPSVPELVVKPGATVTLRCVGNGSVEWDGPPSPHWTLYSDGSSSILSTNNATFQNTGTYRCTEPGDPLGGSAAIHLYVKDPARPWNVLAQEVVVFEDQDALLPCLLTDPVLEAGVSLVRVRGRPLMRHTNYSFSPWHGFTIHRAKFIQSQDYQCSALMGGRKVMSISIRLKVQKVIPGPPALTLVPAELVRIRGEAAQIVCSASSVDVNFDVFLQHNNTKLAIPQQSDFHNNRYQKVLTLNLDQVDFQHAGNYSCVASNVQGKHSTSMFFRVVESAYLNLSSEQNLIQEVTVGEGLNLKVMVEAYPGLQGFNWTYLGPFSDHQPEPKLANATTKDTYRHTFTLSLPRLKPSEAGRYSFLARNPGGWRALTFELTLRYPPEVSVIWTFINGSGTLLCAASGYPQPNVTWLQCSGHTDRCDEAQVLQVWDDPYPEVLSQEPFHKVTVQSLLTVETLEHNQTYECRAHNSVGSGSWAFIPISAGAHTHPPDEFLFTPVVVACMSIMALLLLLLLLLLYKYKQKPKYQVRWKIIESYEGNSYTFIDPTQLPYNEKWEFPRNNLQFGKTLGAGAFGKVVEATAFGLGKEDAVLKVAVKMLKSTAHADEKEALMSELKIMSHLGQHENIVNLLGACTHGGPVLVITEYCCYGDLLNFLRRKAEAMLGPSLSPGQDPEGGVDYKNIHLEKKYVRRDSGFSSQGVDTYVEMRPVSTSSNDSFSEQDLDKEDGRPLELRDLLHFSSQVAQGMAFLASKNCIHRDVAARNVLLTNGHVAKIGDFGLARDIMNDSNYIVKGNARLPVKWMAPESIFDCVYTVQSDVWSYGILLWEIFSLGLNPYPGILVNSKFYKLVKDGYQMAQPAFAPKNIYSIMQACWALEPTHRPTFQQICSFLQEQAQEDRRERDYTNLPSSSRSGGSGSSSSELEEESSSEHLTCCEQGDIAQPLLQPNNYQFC
T7 sequence (Q05397 411-686): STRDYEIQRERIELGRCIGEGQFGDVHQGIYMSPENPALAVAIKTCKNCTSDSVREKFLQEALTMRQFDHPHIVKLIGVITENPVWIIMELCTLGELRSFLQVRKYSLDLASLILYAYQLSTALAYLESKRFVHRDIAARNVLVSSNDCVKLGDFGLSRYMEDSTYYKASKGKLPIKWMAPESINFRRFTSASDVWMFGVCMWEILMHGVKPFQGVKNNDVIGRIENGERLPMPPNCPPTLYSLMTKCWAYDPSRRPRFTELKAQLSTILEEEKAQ
T5 sequence (P11362 458-765 C488A/C584S): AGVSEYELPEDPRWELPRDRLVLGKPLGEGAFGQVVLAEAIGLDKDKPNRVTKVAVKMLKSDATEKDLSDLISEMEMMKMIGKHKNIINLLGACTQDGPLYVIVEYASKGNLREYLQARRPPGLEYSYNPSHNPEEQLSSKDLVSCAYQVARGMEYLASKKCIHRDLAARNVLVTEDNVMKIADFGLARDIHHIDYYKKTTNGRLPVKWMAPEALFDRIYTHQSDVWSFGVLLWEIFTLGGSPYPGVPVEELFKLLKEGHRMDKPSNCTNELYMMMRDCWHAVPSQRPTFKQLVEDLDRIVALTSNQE
T4 sequence (P07947 whole entry): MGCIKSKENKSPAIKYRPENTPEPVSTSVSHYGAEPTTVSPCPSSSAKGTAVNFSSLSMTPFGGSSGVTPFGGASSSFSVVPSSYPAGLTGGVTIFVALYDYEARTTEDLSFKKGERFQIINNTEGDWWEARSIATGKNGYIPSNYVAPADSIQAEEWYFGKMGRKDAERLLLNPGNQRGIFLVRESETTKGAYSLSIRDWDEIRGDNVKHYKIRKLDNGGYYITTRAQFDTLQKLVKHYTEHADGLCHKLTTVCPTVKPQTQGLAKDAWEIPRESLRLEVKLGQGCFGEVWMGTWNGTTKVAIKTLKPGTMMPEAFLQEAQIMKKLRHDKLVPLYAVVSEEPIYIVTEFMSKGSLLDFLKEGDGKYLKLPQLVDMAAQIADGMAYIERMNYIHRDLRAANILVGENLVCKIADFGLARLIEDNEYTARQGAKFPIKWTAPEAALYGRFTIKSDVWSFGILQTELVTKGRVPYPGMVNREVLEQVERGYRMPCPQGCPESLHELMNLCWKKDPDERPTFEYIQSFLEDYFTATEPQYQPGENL
T1 sequence (Q04759 whole entry): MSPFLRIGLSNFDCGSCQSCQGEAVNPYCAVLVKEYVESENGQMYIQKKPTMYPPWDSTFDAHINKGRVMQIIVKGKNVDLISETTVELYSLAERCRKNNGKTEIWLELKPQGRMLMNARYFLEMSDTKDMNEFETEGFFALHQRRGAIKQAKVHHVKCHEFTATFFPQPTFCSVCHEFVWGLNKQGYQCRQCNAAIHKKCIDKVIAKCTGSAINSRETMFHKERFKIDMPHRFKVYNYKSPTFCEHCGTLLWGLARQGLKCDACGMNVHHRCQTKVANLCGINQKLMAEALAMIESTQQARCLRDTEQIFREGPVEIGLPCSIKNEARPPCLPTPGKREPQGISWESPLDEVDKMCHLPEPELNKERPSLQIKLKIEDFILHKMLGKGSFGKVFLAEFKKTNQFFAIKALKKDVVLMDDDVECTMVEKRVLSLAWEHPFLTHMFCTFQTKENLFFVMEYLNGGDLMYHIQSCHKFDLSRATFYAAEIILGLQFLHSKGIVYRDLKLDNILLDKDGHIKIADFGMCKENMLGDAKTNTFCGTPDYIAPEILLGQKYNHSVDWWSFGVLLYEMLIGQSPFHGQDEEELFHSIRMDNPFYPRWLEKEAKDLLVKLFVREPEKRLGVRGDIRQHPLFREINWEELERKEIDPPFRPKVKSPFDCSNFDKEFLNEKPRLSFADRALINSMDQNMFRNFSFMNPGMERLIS

IC50 [1] | IC50 [2] | IC50 [3] | IC50 [4] | IC50 [5] | IC50 [6] | IC50 [7] | IC50 [8] | SMILES
≤ 10 µM | ≤ 10 µM | ≤ 10 µM | ≤ 10 µM | – | – | – | – | CC(=O)Nc1cccc(-c2ccnc3[nH]cc(C(=O)c4ccccc4F)c23)c1 [Compound P-0070]
≤ 10 µM | – | – | ≤ 10 µM | ≤ 10 µM | ≤ 10 µM | – | – | O=C(c1ccc(O)cc1Cl)c1c[nH]c2ncccc12 [Compound P-0021]
≤ 10 µM | ≤ 10 µM | ≤ 10 µM | – | ≤ 10 µM | ≤ 10 µM | ≤ 10 µM | ≤ 10 µM | CC(=O)Nc1cccc(-c2cnc3[nH]cc(C(=O)c4cc(O)ccc4F)c3c2)c1 [Compound P-0001]
≤ 10 µM | ≤ 10 µM | ≤ 10 µM | ≤ 10 µM | – | – | – | – | O=C(c1cc(F)ccc1F)c1c[nH]c2nccc(-c3cccnc3)c12 [Compound P-0063]
≤ 10 µM | ≤ 10 µM | ≤ 10 µM | ≤ 10 µM | ≤ 10 µM | – | – | – | O=C(c1cccc(O)c1)c1c[nH]c2ncccc12 [Compound P-0011]
≤ 10 µM | ≤ 10 µM | ≤ 10 µM | – | ≤ 10 µM | ≤ 10 µM | ≤ 10 µM | ≤ 10 µM | Nc1cccc(-c2cnc3[nH]cc(C(=O)c4cc(O)ccc4F)c3c2)c1 [Compound P-0002]
≤ 10 µM | ≤ 10 µM | – | ≤ 10 µM | ≤ 10 µM | – | – | – | Cc1ccccc1C(=O)c1c[nH]c2nccc(-c3ccc(C(N)=O)cc3)c12 [Compound P-0017]
≤ 10 µM | ≤ 10 µM | ≤ 10 µM | ≤ 10 µM | ≤ 10 µM | ≤ 10 µM | – | – | CS(=O)(=O)c1cccc(-c2cnc3[nH]cc(C(O)c4c(F)ccc(F)c4F)c3c2)c1 (stereo not shown) [Compound P-0020]
≤ 10 µM | ≤ 10 µM | ≤ 10 µM | – | ≤ 10 µM | ≤ 10 µM | ≤ 10 µM | ≤ 10 µM | CS(=O)(=O)c1cccc(-c2cnc3[nH]cc(C(=O)c4cc(O)ccc4F)c3c2)c1 [Compound P-0008, (2-Fluoro-5-hydroxy-phenyl)-[5-(3-methanesulfonyl-phenyl)-1H-pyrrolo[2,3-b]pyridin-3-yl]-methanone]
≤ 10 µM | ≤ 10 µM | – | ≤ 10 µM | ≤ 10 µM | ≤ 10 µM | – | – | O=C(c1cccc(O)c1)c1c[nH]c2ncc(Br)cc12 [Compound P-0019]
≤ 10 µM | ≤ 10 µM | ≤ 10 µM | ≤ 10 µM | – | – | – | – | Nc1cccc(-c2ccnc3[nH]cc(C(=O)c4cc(F)ccc4F)c23)c1 [Compound P-0046]
≤ 10 µM | ≤ 10 µM | ≤ 10 µM | ≤ 10 µM | – | – | – | – | O=C(c1ccccc1F)c1c[nH]c2nccc(-c3ccsc3)c12 [Compound P-0051]
≤ 10 µM | ≤ 10 µM | – | – | ≤ 10 µM | ≤ 10 µM | ≤ 10 µM | ≤ 10 µM | Nc1cccc(-c2cnc3[nH]cc(C(=O)c4cccc(O)c4F)c3c2)c1 [Compound P-0004, [5-(3-amino-phenyl)-1H-pyrrolo[2,3-b]pyridin-3-yl]-(2-fluoro-3-hydroxy-phenyl)methanone]
≤ 10 µM | ≤ 10 µM | ≤ 10 µM | ≤ 10 µM | ≤ 10 µM | – | – | – | NC(=O)c1ccc(-c2ccnc3[nH]cc(C(=O)c4cc(F)ccc4F)c23)cc1 [Compound P-0013]
≤ 10 µM | ≤ 10 µM | ≤ 10 µM | – | ≤ 10 µM | ≤ 10 µM | ≤ 10 µM | ≤ 10 µM | Nc1cccc(-c2cnc3[nH]cc(C(=O)c4cccc(O)c4)c3c2)c1 [Compound P-0003]
≤ 10 µM | ≤ 10 µM | ≤ 10 µM | ≤ 10 µM | – | – | – | – | Cc1ccccc1C(=O)c1c[nH]c2nccc(-c3cccc(N)c3)c12 [Compound P-0044]
≤ 10 µM | ≤ 10 µM | – | ≤ 10 µM | – | – | – | – | Cc1ccccc1C(=O)c1c[nH]c2nccc(-c3cccc(NS(C)(=O)=O)c3)c12 [Compound P-0109]
≤ 10 µM | ≤ 10 µM | ≤ 10 µM | ≤ 10 µM | – | – | – | – | NC(=O)c1ccc(-c2ccnc3[nH]cc(C(=O)c4ccccc4F)c23)cc1 [Compound P-0014]
≤ 10 µM | ≤ 10 µM | – | ≤ 10 µM | ≤ 10 µM | ≤ 10 µM | – | – | O=C(c1cccc(O)c1)c1c[nH]c2nccc(Cl)c12 [Compound P-0012]
≤ 10 µM | ≤ 10 µM | ≤ 10 µM | ≤ 10 µM | – | – | – | – | NC(=O)c1cccc(-c2ccnc3[nH]cc(C(=O)c4cc(F)ccc4F)c23)c1 [Compound P-0049]
≤ 10 µM | ≤ 10 µM | – | ≤ 10 µM | ≤ 10 µM | – | ≤ 10 µM | – | Cc1c(O)cccc1C(=O)c1c[nH]c2ncc(Br)cc12 [Compound P-0055, (5-Bromo-1H-pyrrolo[2,3-b]pyridin-3-yl)-(3-hydroxy-2-methyl-phenyl)-methanone]
≤ 10 µM | ≤ 10 µM | ≤ 10 µM | ≤ 10 µM | – | – | – | – | Nc1cccc(-c2ccnc3[nH]cc(C(=O)c4ccccc4F)c23)c1 [Compound P-0022]
≤ 10 µM | ≤ 10 µM | – | ≤ 10 µM | ≤ 10 µM | – | ≤ 10 µM | ≤ 10 µM | O=C(c1ccc(O)cc1)c1c[nH]c2ncc(-c3cccs3)cc12 [Compound P-0024, (4-Hydroxy-phenyl)-(5-thiophen-2-yl-1H-pyrrolo[2,3-b]pyridin-3-yl)-methanone]
≤ 10 µM | ≤ 10 µM | ≤ 10 µM | ≤ 10 µM | – | – | – | – | CS(=O)(=O)Nc1cccc(-c2ccnc3[nH]cc(C(=O)c4cc(F)ccc4F)c23)c1 [Compound P-0060]
